Results: patent EP3498270A1, “SLOW RELEASE FORMULATIONS OF CELL CYCLE REGULATORS AND ANTI-CANCER AGENTS FOR LOCAL TREATMENT OF SOLID CANCER” (Urogen Pharma Ltd., priority 2017, dated 2019)
pEC50: −log10 of the molar value. Where two headings read alike, the source gives them in different places.

How the values were obtained:
RT-4 cells [1] = experiment: Cell cytotoxicity / apoptosis (Annexin V FITC and PI staining, flow cytometry); assay type: cell-based, human; details: 1mM HU 20 hours, wash; for late apoptosis: after 2 hours Gem 5µM 8 hours, 72 hours from HU washes; for percentages of apoptotic cells: after 2 hours 10µM MMC 8 hours, 48 hours after HU withdrawal
Procedure: After 24 hours to 5 days from HU washes, cells were stained with Annexin V FITC and PI for identifying apoptotic cells according to standard protocols.

UMUC-3 cells [2] = experiment: XTT cell viability assay; assay type: cell-based, human; details: for pEC50 / viability at 1000 µM: Homo sapiens
Procedure: Cells were treated with 0-16mM HU/ Control (DMSO or RPMI medium only) for up to 20 hours. […] XTT assay for cytotoxicity was then performed and plates were analyzed in an ELISA reader at wave length of 490nm.
The methods used were as described in the other examples. Briefly, UMUC-3 cells were cultured in 96 well microculture plates. Cells were pretreated with 1mM HU (or DMSO- vehicle control) for 2 hours. […] The percentage of viable cells presented in the figures and table was calculated from untreated cells with viability of 100%.

RT-4 cells [3] = experiment: XTT cell viability assay; assay type: cell-based; details: Homo sapiens, RT-4, read-out: MMC EC50 concentration value
UMUC-3 cells [4] = experiment: Cell cytotoxicity / apoptosis (Annexin V FITC and PI staining, flow cytometry); details: 1mM HU 20 hours, wash, after 2 hours 10µM MMC 8 hours; 48 hours after HU withdrawal
UMUC-3 cells [5] = experiment: Cell cycle distribution (PI staining, flow cytometry); assay type: cell-based, human
Procedure: (§1) A Cyan Flow cytometer was used for determining DNA content and cell cycle distribution of UMUC-3 and RT-4 cells. Cells were seeded in 6 well plates (10^6 cells/well) and incubated overnight. Cells were then cultured with cell cycle modulator (0.1-15mM HU or 0.25µM PD0332991) or with DMSO (vehicle control) for up to 20 hours (HU) or 24 hours (PD0332991). Then, the HU, PD0332991 (or DMSO) was washed and replaced by fresh media and cells were fixed at different time points following washes. The fixation was done by a fixation buffer that purchased from ENCO (Cayman). Minimum 2 hours after the fixation, cells were washed and labeled with propidium iodide (PI) for 15 min in the dark. Cells were analyzed by flow cytometry (PI staining was detected in FL3, […] laser).
(§2) Unless otherwise indicated, methods were as described in Example 1. In order to investigate the influence of HU on cell cycle distribution in bladder cancer cell lines, UMUC-3 and RT-4 cells were treated with 1mM HU (or DMSO for vehicle control) for 20 hours. Cell cycle distribution was observed immediately after HU exposure and 2, 4, 6, 8, and 10 hours following HU withdrawal.

RT-4 cells [6] = experiment: as above; assay type: cell-based, human; details: 1mM HU for 20 hours, 4 hours from HU withdrawal
Procedure: as §1, §2

SMILES	late apoptosis (RT-4 cells [1]) [%]	viability (UMUC-3 cells [2]; 1mM HU 20 hours, wash, after 2 hours Gem (EC50) 8 hours) [%]	pEC50 (RT-4 cells [3])	percentages of apoptotic cells (UMUC-3 cells [4]) [%]	percentages of apoptotic cells (RT-4 cells [1]) [%]	pEC50 (UMUC-3 cells [2]; UMUC3, 2 h, read-out: MMC EC50 value)	pEC50 (UMUC-3 cells [2]; UMUC3, read-out: MMC EC50 concentration value)	viability at 1000 µM (UMUC-3 cells [2]; UMUC3, 1mM HU 20 hours, wash, after 2 hours Gem (EC50) 8 hours) [%]	viability at 1000 µM (UMUC-3 cells [2]; UMUC3, short exposure: 1mM HU 2 hours, 2 hours wash, 20µM MMC 2 hours, analysed after 48 hours) [%]	percentage of cells at the S phase (UMUC-3 cells [5]; 1mM HU for 20 hours, 4 hours from HU withdrawal) [%]	increase in S phase accumulation (UMUC-3 cells [5]; 1mM HU for 20 hours, versus DMSO control, 4 hours from HU withdrawal)	S phase accumulation (UMUC-3 cells [5]; HU 0.5 to 4mM for 20 hours, 6 hours after the HU wash)	influence on cell cycle distribution (UMUC-3 cells [5]; HU concentrations lower than 0.1mM)	percentage of cells at the S phase (RT-4 cells [6]) [%]	increase in S phase accumulation (RT-4 cells [6]; versus DMSO control)
Nc1ccn([C@@H]2O[C@H](CO)[C@@H](O)C2(F)F)c(=O)n1 [Gem, Gemcitabine]	22.2	50.9	–	–	–	–	–	–	–	–	–	–	–	–	–
CO[C@@]12[C@H](COC(N)=O)C3=C(C(=O)C(C)=C(N)C3=O)N1C[C@@H]1N[C@@H]12 [MMC, Mitomycin C]	–	–	4.70 to 5.30	21.4	13.4	4.70	5.00	–	–	–	–	–	–	–	–
NC(=O)NO [HU, Hydroxyurea]	5.9	–	–	8.1	4.8	–	–	71.3	86.1	57.0	approximately 3 fold	greater than 50%	no significant influence	48.6	approximately 6 fold
